Measurements as given in the NIST ThermoML archive (doi:10.1021/acs.jced.8b00948).
Numbers after ± are expanded uncertainties.

Test: xn = mol fraction of the nth substance listed
Conditions: for surface tension liquid-gas: Pendant drop shape; for viscosity: 101 kPa, Liquid, Concentric cylinders viscometry

CCn1cc[n+](C)c1.COS(=O)(=O)[O-] [1-ethyl-3-methylimidazolium methylsulfate] + CCCCCO
Conditions	surface tension liquid-gas, 298.15 K [mN/m]	surface tension liquid-gas, 303.15 K [mN/m]	surface tension liquid-gas, 308.15 K [mN/m]	surface tension liquid-gas, 313.15 K [mN/m]	viscosity, 298.15 K [mPa·s]	viscosity, 303.15 K [mPa·s]	viscosity, 308.15 K [mPa·s]	viscosity, 313.15 K [mPa·s]
x1 = 0.05	26.1 ± 0.6	25.7 ± 0.6	25.3 ± 0.6	24.9 ± 0.6	5.15 ± 0.32	4.07 ± 0.25	3.74 ± 0.23	3.24 ± 0.2
x1 = 0.284	32.3 ± 0.7	32 ± 0.7	31.6 ± 0.7	31.3 ± 0.7	14.8 ± 0.9	11.9 ± 0.7	10.2 ± 0.6	8.52 ± 0.52
x1 = 0.459	37.1 ± 0.8	36.8 ± 0.8	36.5 ± 0.8	36.2 ± 0.8	24.4 ± 1.5	19.4 ± 1.2	16.3 ± 1	13.6 ± 0.8
x1 = 0.613	41.4 ± 0.9	41.1 ± 0.9	40.8 ± 0.9	40.5 ± 0.9	34.7 ± 2.1	27.3 ± 1.7	22.5 ± 1.4	18.7 ± 1.1
x1 = 0.768	45.8 ± 1.1	45.5 ± 1.1	45.2 ± 1.1	44.9 ± 1	46.9 ± 2.8	37 ± 2.2	30.5 ± 1.9	25.2 ± 1.5
x1 = 0.922	50.3 ± 1.2	50 ± 1.2	49.7 ± 1.2	49.4 ± 1.2	60.9 ± 3.7	48.8 ± 3	40.1 ± 2.4	33.3 ± 2
x1 = 1	52.5 ± 1.3	52.2 ± 1.2	51.9 ± 1.2	51.6 ± 1.2	68.5 ± 4.2	55.4 ± 3.4	45.5 ± 2.8	37.9 ± 2.3

CCn1cc[n+](C)c1.COS(=O)(=O)[O-] [1-ethyl-3-methylimidazolium methylsulfate] + CCCCO
Conditions	surface tension liquid-gas, 298.15 K [mN/m]	surface tension liquid-gas, 303.15 K [mN/m]	surface tension liquid-gas, 308.15 K [mN/m]	surface tension liquid-gas, 313.15 K [mN/m]	viscosity, 298.15 K [mPa·s]	viscosity, 303.15 K [mPa·s]	viscosity, 308.15 K [mPa·s]	viscosity, 313.15 K [mPa·s]
x1 = 0.041	25 ± 0.6	24.7 ± 0.6	24.3 ± 0.6	23.9 ± 0.5	3.84 ± 0.24	3.3 ± 0.21	2.86 ± 0.18	2.45 ± 0.15
x1 = 0.219	29.9 ± 0.7	29.5 ± 0.7	29.2 ± 0.7	28.9 ± 0.7	10.7 ± 0.7	8.75 ± 0.53	7.38 ± 0.45	6.22 ± 0.38
x1 = 0.417	35.3 ± 0.8	35.1 ± 0.8	34.7 ± 0.8	34.5 ± 0.8	20.3 ± 1.2	16.4 ± 1	13.8 ± 0.8	11.4 ± 0.7
x1 = 0.571	39.8 ± 0.9	39.5 ± 0.9	39.2 ± 0.9	38.9 ± 0.9	29 ± 1.8	23.4 ± 1.4	19.5 ± 1.2	16.2 ± 1
x1 = 0.731	44.4 ± 1	44.2 ± 1	43.9 ± 1	43.6 ± 1	41.1 ± 2.5	33.1 ± 2	27.5 ± 1.7	22.8 ± 1.4
x1 = 0.909	49.8 ± 1.2	49.5 ± 1.2	49.2 ± 1.2	48.9 ± 1.2	58.2 ± 3.5	46.8 ± 2.8	38.4 ± 2.3	31.8 ± 1.9
x1 = 1	52.5 ± 1.3	52.2 ± 1.2	51.9 ± 1.2	51.6 ± 1.2	68.5 ± 4.2	55.4 ± 3.4	45.5 ± 2.8	37.9 ± 2.3

CCn1cc[n+](C)c1.COS(=O)(=O)[O-] [1-ethyl-3-methylimidazolium methylsulfate] + CCCO
Conditions	surface tension liquid-gas, 298.15 K [mN/m]	surface tension liquid-gas, 303.15 K [mN/m]	surface tension liquid-gas, 308.15 K [mN/m]	surface tension liquid-gas, 313.15 K [mN/m]	viscosity, 298.15 K [mPa·s]	viscosity, 303.15 K [mPa·s]	viscosity, 308.15 K [mPa·s]	viscosity, 313.15 K [mPa·s]
x1 = 0.059	24.8 ± 0.6	24.4 ± 0.6	24 ± 0.5	23.6 ± 0.5	3.71 ± 0.23	3.14 ± 0.2	2.72 ± 0.17	2.36 ± 0.15
x1 = 0.228	29.5 ± 0.7	29.1 ± 0.7	28.8 ± 0.7	28.5 ± 0.6	9.94 ± 0.6	8.07 ± 0.49	6.8 ± 0.41	5.75 ± 0.35
x1 = 0.375	33.6 ± 0.8	33.4 ± 0.8	33.1 ± 0.7	32.8 ± 0.7	17 ± 1	13.7 ± 0.8	11.6 ± 0.7	9.72 ± 0.59
x1 = 0.524	38 ± 0.9	37.7 ± 0.9	37.4 ± 0.9	37.2 ± 0.8	24.7 ± 1.5	19.8 ± 1.2	16.6 ± 1	13.9 ± 0.8
x1 = 0.72	43.8 ± 1	43.6 ± 1	43.3 ± 1	43 ± 1	38.9 ± 2.4	31.3 ± 1.9	25.9 ± 1.6	21.6 ± 1.3
x1 = 0.874	48.6 ± 1.1	48.3 ± 1.1	48 ± 1.1	47.7 ± 1.1	52.7 ± 3.2	42.5 ± 2.6	35.1 ± 2.1	29.2 ± 1.8
x1 = 1	52.5 ± 1.3	52.2 ± 1.2	51.9 ± 1.2	51.6 ± 1.2	68.5 ± 4.2	55.4 ± 3.4	45.5 ± 2.8	37.9 ± 2.3

CCCCO [butan-1-ol] + CCn1cc[n+](C)c1.COS(=O)(=O)[O-]
x2 = 0
Conditions	surface tension liquid-gas [mN/m]	viscosity [mPa·s]
298.15 K	23.9 ± 0.5	2.57 ± 0.15
303.15 K	23.5 ± 0.5	2.28 ± 0.14
308.15 K	23.1 ± 0.5	2.01 ± 0.12
313.15 K	22.7 ± 0.5	1.75 ± 0.11

CCCCO [butan-1-ol] + COS(=O)(=O)[O-].Cn1cc[n+](C)c1
x2 = 0
Conditions	surface tension liquid-gas [mN/m]	viscosity [mPa·s]
298.15 K	23.9 ± 0.5	2.57 ± 0.15
303.15 K	23.5 ± 0.5	2.28 ± 0.14
308.15 K	23.1 ± 0.5	2.01 ± 0.12
313.15 K	22.7 ± 0.5	1.75 ± 0.11

CCCCCO [pentan-1-ol] + CCn1cc[n+](C)c1.COS(=O)(=O)[O-]
x2 = 0
Conditions	surface tension liquid-gas [mN/m]	viscosity [mPa·s]
298.15 K	24.7 ± 0.6	3.51 ± 0.21
303.15 K	24.3 ± 0.5	2.84 ± 0.17
308.15 K	23.9 ± 0.5	2.64 ± 0.16
313.15 K	23.5 ± 0.5	2.34 ± 0.14

CCCCCO [pentan-1-ol] + COS(=O)(=O)[O-].Cn1cc[n+](C)c1
x2 = 0
Conditions	surface tension liquid-gas [mN/m]	viscosity [mPa·s]
298.15 K	24.7 ± 0.6	3.51 ± 0.21
303.15 K	24.3 ± 0.5	2.84 ± 0.17
308.15 K	23.9 ± 0.5	2.64 ± 0.16
313.15 K	23.5 ± 0.5	2.34 ± 0.14

CCCO [propan-1-ol] + CCn1cc[n+](C)c1.COS(=O)(=O)[O-]
x2 = 0
Conditions	surface tension liquid-gas [mN/m]	viscosity [mPa·s]
298.15 K	23.2 ± 0.5	1.94 ± 0.12
303.15 K	22.8 ± 0.5	1.72 ± 0.1
308.15 K	22.3 ± 0.5	1.54 ± 0.09
313.15 K	21.9 ± 0.5	1.38 ± 0.08

CCCO [propan-1-ol] + COS(=O)(=O)[O-].Cn1cc[n+](C)c1
x2 = 0
Conditions	surface tension liquid-gas [mN/m]	viscosity [mPa·s]
298.15 K	23.2 ± 0.5	1.94 ± 0.12
303.15 K	22.8 ± 0.5	1.72 ± 0.1
308.15 K	22.3 ± 0.5	1.54 ± 0.09
313.15 K	21.9 ± 0.5	1.38 ± 0.08
